Experiments:
[1] = pKHB (hydrogen bond basicity of the heterocycle) was determined
[2] = pKa was determined; type: physicochemical
[3] = molecular target: T1, Somatostatin receptor type 4 (Homo sapiens, UniProt P31391); test: Tested for binding affinity at human Somatostatin receptor type 4 using ([3-125I-Tyr11)]-SRIF-14 as the radioligand
Substance-P receptor = Substance-P receptor (Homo sapiens, UniProt P25103); test: Binding affinity against Tachykinin receptor 1
[4] = molecular target: T1, Somatostatin receptor type 4; test: Inhibitory concentration required against human Somatostatin receptor type 4
[5] = molecular target: Somatostatin receptor type 2 (Homo sapiens, UniProt P30874); test: Inhibitory concentration required against human Somatostatin receptor type 2
Chain of Somatostatin receptor type 2 (P30874 whole entry): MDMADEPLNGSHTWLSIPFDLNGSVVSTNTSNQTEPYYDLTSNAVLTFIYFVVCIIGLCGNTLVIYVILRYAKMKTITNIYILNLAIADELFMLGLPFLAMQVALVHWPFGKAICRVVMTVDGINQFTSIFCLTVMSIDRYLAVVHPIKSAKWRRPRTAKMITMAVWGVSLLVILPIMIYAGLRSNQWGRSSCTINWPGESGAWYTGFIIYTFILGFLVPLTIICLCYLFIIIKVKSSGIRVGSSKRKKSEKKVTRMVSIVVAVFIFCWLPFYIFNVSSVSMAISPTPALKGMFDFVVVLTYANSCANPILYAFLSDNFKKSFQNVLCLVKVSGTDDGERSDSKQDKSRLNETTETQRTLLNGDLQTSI

T1 sequence (P31391 whole entry): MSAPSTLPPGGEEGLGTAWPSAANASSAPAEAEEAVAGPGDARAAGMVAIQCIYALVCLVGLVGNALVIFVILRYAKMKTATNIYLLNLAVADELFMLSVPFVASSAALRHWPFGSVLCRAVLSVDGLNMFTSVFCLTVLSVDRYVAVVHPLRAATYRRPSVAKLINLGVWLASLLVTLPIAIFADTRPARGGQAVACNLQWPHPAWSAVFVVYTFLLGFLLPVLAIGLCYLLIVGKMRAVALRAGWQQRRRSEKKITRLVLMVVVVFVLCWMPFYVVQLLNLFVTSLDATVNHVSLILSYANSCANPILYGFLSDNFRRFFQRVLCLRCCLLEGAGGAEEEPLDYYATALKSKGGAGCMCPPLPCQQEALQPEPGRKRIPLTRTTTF
Chain of Substance-P receptor (P25103 whole entry): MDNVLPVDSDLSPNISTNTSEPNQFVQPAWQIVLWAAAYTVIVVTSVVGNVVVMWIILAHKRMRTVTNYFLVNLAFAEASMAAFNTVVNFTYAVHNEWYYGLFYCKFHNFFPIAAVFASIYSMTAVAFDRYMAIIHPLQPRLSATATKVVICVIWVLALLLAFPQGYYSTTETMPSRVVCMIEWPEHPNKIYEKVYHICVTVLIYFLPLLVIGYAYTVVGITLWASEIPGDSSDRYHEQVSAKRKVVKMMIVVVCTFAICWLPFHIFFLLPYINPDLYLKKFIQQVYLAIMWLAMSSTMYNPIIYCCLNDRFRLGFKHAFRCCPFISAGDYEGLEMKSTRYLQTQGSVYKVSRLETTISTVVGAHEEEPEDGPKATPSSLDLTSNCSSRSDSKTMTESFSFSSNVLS

pKHB [1] | pKa [2] | Ki [3] [nM] | Ki (Substance-P receptor) [nM] | IC50 [4] [nM] | IC50 [5] [nM] | SMILES
1.95 | 0.7 | 260 |  |  |  | NCCCCCOC[C@H]1O[C@@H](OCCc2c[nH]c3ccccc23)[C@H](OCc2ccccc2)[C@@H](OCc2ccccc2)[C@@H]1OCc1cnccn1
 |  | 1650 | 150 |  |  | NCCCCCOC[C@H]1O[C@@H](OCCc2c[nH]c3ccccc23)[C@H](OCc2ccccc2)[C@@H](OCc2ccccc2)[C@@H]1OCc1ccccc1
1.86 | 5.2 | 360 |  |  |  | NCCCCCOC[C@H]1O[C@@H](OCCc2c[nH]c3ccccc23)[C@H](OCc2ccccc2)[C@@H](OCc2ccccc2)[C@@H]1OCc1cccnc1
 |  |  | 27 |  |  | CC(=O)NCCCCCOC[C@H]1O[C@@H](OCCc2c[nH]c3ccccc23)[C@H](OCc2ccccc2)[C@@H](OCc2ccccc2)[C@@H]1O
1.86 | 5.2 | 890 |  |  |  | NCCCCCOC[C@H]1O[C@@H](OCCc2c[nH]c3ccccc23)[C@H](OCc2ccccc2)[C@@H](OCc2ccccc2)[C@@H]1OCc1ccccn1
 | 0.5 | 1200 |  |  |  | NCCCCCOC[C@H]1O[C@@H](OCCc2c[nH]c3ccccc23)[C@H](OCc2ccccc2)[C@@H](OCc2ccccc2)[C@@H]1OCc1ccc(Cl)nc1
1.05 | 6.1 | 1260 |  |  |  | Cc1ccc(CO[C@H]2[C@H](OCc3ccccc3)[C@@H](OCc3ccccc3)[C@H](OCCc3c[nH]c4ccccc34)O[C@@H]2COCCCCCN)cn1
0.95 | -0.4 | 680 |  |  |  | NCCCCCOC[C@H]1O[C@@H](OCCc2c[nH]c3ccccc23)[C@H](OCc2ccccc2)[C@@H](OCc2ccccc2)[C@@H]1OCc1ccc(F)nc1
 |  | 53 |  | 53 | 2250 | NCCCCCOC[C@H]1O[C@@H](OCCc2c[nH]c3ccccc23)[C@H](OCc2cnc[nH]2)[C@@H](OCc2ccccc2)[C@@H]1OCc1cccnc1
1.86 | 5.2 | 570 |  |  |  | NCCCCCOC[C@H]1O[C@@H](OCCc2c[nH]c3ccccc23)[C@H](OCc2ccccc2)[C@@H](OCc2ccccc2)[C@@H]1OCc1ccncc1
2.03 | 7.2 | 1040 |  |  |  | NCCCCCOC[C@H]1O[C@@H](OCCc2c[nH]c3ccccc23)[C@H](OCc2ccccc2)[C@@H](OCc2ccccc2)[C@@H]1OCc1c[nH]cn1
 |  |  |  | 800 |  | NCCCCCOC[C@@H]1O[C@H](OCCc2c[nH]c3ccccc23)[C@H](OCc2cnc[nH]2)C(OCc2ccccc2)[C@H]1OCCc1cccnc1 (single isomer, unassigned; (+))
 |  | 100 |  | 100 | 800 | NCCCCCOC[C@@H]1O[C@H](OCCc2c[nH]c3ccccc23)[C@H](OCc2cnc[nH]2)C(OCc2ccccc2)[C@H]1OCc1ccccc1 (single isomer, unassigned; (+))

Reference: ChEMBL document CHEMBL1145032, “Effects of heterocyclic aromatic substituents on binding affinities at two distinct sites of somatostatin receptors. Correlation with the electrostatic potential of the substituents” (J Med Chem, 2003)
